Laboratory results from the NIST ThermoML archive (doi:10.1016/j.jct.2016.08.010).

How the values were obtained:
[1] = molar heat capacity at constant pressure; xn = mol fraction of the nth substance listed; settings: 100 kPa, Liquid, Small sample (50 mg) DSC
[2] = excess molar enthalpy (molar enthalpy of mixing); xn = mol fraction of the nth substance listed; settings: 298.15 K, 100 kPa, Liquid, Power-compensation calorimetry

CCCCn1cc[n+](C)c1C.F[B-](F)(F)F [1-butyl-2,3-dimethylimidazolium tetrafluoroborate] + CCn1cc[n+](C)c1.F[B-](F)(F)F
molar heat capacity at constant pressure [J/K/mol], [1]
Settings	293.15 K	298.15 K	303.15 K	308.15 K
x1 = 0.1129	319.45	321.79	324.44	327.05
x1 = 0.1657	325.94	328.52	331.39	334.26
x1 = 0.2189	331.85	334.58	337.61	340.64
x1 = 0.2743	337.42	340.23	343.39	346.51
x1 = 0.3272	342.26	345.15	348.38	351.58
x1 = 0.3729	346.15	349.09	352.37	355.65
x1 = 0.4382	351.36	354.4	357.74	361.09
x1 = 0.4917	355.44	358.6	362.01	365.39
x1 = 0.5242	357.91	361.14	364.6	368.01
x1 = 0.5687	361.32	364.66	368.19	371.64
x1 = 0.6042	364.11	367.55	371.14	374.62
x1 = 0.6468	367.63	371.19	374.82	378.34
x1 = 0.6931	371.7	375.37	379.1	382.63
x1 = 0.7244	374.62	378.4	382.14	385.71
x1 = 0.785	380.94	384.83	388.57	392.14
x1 = 0.8149	384.44	388.32	392.05	395.57
x1 = 0.8633	390.63	394.43	398.1	401.56
x1 = 0.9107	397.48	401.14	404.65	407.96
x1 = 1	413.03	416.01	418.84	421.7

[2]
Settings	excess molar enthalpy [kJ/mol]
x1 = 0.0907	-0.266
x1 = 0.1357	-0.333
x1 = 0.1849	-0.368
x1 = 0.2377	-0.358
x1 = 0.2839	-0.319
x1 = 0.3341	-0.248
x1 = 0.3729	-0.183
x1 = 0.4351	-0.058
x1 = 0.4972	0.077
x1 = 0.5483	0.189
x1 = 0.5967	0.286
x1 = 0.6417	0.37
x1 = 0.6978	0.441
x1 = 0.7424	0.476
x1 = 0.7909	0.488
x1 = 0.8345	0.458
x1 = 0.8758	0.401
x1 = 0.9035	0.347

CCn1cc[n+](C)c1.F[B-](F)(F)F [1-ethyl-3-methylimidazolium tetrafluoroborate] + CCCCn1cc[n+](C)c1.F[B-](F)(F)F
molar heat capacity at constant pressure [J/K/mol], [1]
Settings	293.15 K	298.15 K	303.15 K	308.15 K
x2 = 0	303.2	304.53	306.29	308.03
x2 = 0.0731	314.45	315.32	316.58	318.02
x2 = 0.1164	321.05	322.12	323.51	324.76
x2 = 0.1692	328.75	329.72	330.85	332.16
x2 = 0.2144	335.06	336	337.17	338.49
x2 = 0.2672	341.92	342.87	344.05	345.42
x2 = 0.3259	348.89	349.85	351.13	352.54
x2 = 0.3827	354.65	355.77	357.13	358.55
x2 = 0.4365	359.23	360.56	362.07	363.61
x2 = 0.4722	361.72	363.22	364.73	366.24
x2 = 0.535	365.27	367.01	368.62	370.2
x2 = 0.5968	367.7	369.31	370.93	372.58
x2 = 0.6379	368.54	370.31	371.89	373.53
x2 = 0.6857	369.02	370.78	372.53	374.23
x2 = 0.7446	369.21	371.07	372.68	374.41
x2 = 0.7732	368.94	370.9	372.67	374.4
x2 = 0.8293	368.08	370.08	371.76	373.59
x2 = 0.876	367.14	369.26	371.02	372.8
x2 = 0.9253	365.44	367.47	369.72	371.83

[2]
Settings	excess molar enthalpy [kJ/mol]
x2 = 0.0714	0.00901
x2 = 0.1234	0.0162
x2 = 0.1781	0.024
x2 = 0.2396	0.0329
x2 = 0.2944	0.0396
x2 = 0.3468	0.045
x2 = 0.3972	0.0489
x2 = 0.4428	0.0513
x2 = 0.4859	0.0526
x2 = 0.5374	0.0526
x2 = 0.5884	0.051
x2 = 0.6291	0.0488
x2 = 0.6724	0.0454
x2 = 0.7172	0.0408
x2 = 0.7639	0.0351
x2 = 0.8109	0.0286
x2 = 0.8642	0.0203
x2 = 0.9077	0.0137
